Experimental data taken from US12152020B2, “Pesticidally active azole-amide compounds” (SYNGENTA PARTICIPATIONS AG, priority 2018, dated 2024).

Legend:
Assay type in all cases: in vivo
[1] = system: Chilo suppressalis (Striped Rice Stemborer); assay: Example B4: Chilo suppressalis, artificial diet, L2 larvae; conditions: 144 h, application rate of 200 ppm, 6 days after infestation, in comparison to untreated samples, read-out: control in at least one of the categories (mortality, anti-feedant effect, or growth inhibition)
Description: Example B4: Chilo suppressalis (Striped Rice Stemborer)
24-well microtiter plates with artificial diet were treated with aqueous test solutions prepared from 10′000 ppm DMSO stock solutions by pipetting. After drying, the plates were infested with L2 larvae (6-8 per well). The samples were assessed for mortality, anti-feeding effect, and growth inhibition in comparison to untreated samples 6 days after infestation. Control of Chilo suppressalis by a test sample is given when at least one of the categories mortality, anti-feedant effect, and growth inhibition is higher than the untreated sample.

[2] = system: Spodoptera littoralis (Egyptian Cotton Leaf Worm); assay: Example B9: Spodoptera littoralis, cotton leaf discs sprayed, L1 larvae; conditions: foliar, 72 h, application rate of 200 ppm, five L1 larvae, 3 days after infestation, in comparison to untreated samples, read-out: control in at least one of the categories (mortality, anti-feedant effect, or growth inhibition)
Description: Example B9: Spodoptera littoralis (Egyptian Cotton Leaf Worm)
Cotton leaf discs were placed onto agar in 24-well microtiter plates and sprayed with aqueous test solutions prepared from 10′000 ppm DMSO stock solutions. After drying the leaf discs were infested with five L1 larvae. The samples were assessed for mortality, anti-feeding effect, and growth inhibition in comparison to untreated samples 3 days after infestation. Control of Spodoptera littoralis by a test sample is given when at least one of the categories mortality, anti-feedant effect, and growth inhibition is higher than the untreated sample.

[3] = system: Diabrotica balteata (Corn Root Worm); assay: Example B1: Diabrotica balteata, maize sprouts sprayed, L2 larvae; conditions: 96 h, application rate of 200 ppm, 4 days after infestation, in comparison to untreated samples, read-out: effect in at least one of the two categories (mortality or growth inhibition)
Description: Example B1: Diabrotica balteata (Corn Root Worm)
Maize sprouts placed onto an agar layer in 24-well microtiter plates were treated with aqueous test solutions prepared from 10′000 ppm DMSO stock solutions by spraying. After drying, the plates were infested with L2 larvae (6 to 10 per well). The samples were assessed for mortality and growth inhibition in comparison to untreated samples 4 days after infestation.
The following compounds gave an effect of at least 80% in at least one of the two categories (mortality or growth inhibition) at an application rate of 200 ppm: • P2, P3, P4, P5, P6, P7, P8, P14, P15, P16, P17, P18, P19, P20, P21, P22, P23, P24, P25, P27, P28, P29, P30, P31, P32, P33, P34, P35

[4] = system: Plutella xylostella (Diamond Back Moth); assay: Example B5: Plutella xylostella, artificial diet in 24-well plates, eggs; conditions: 192 h, application rate of 200 ppm, 8 days after infestation, in comparison to untreated samples, read-out: effect in at least one of the two categories (mortality or growth inhibition)
Description: Example B5: Plutella xylostella (Diamond Back Moth)
24-well microtiter plates with artificial diet were treated with aqueous test solutions prepared from 10′000 ppm DMSO stock solutions by pipetting. After drying, Plutella eggs were pipetted through a plastic stencil onto a gel blotting paper and the plate was closed with it. The samples were assessed for mortality and growth inhibition in comparison to untreated samples 8 days after infestation.
The following compounds gave an effect of at least 80% in at least one of the two categories (mortality or growth inhibition) at an application rate of 200 ppm: • P1, P2, P3, P4, P5, P7, P8, P9, P14, P15, P16, P17, P18, P21, P22, P23, P24, P25, P27, P28, P29, P30, P31, P32, P33, P34, P35, P36

[5] = system: Plutella xylostella (Diamondback Moth); assay: Example B14: Plutella xylostella, artificial diet in 96-well plates, eggs; conditions: 216 h, application rate of 500 ppm, 9 days after infestation
Description: Example B14: Plutella xylostella (Diamondback Moth)
96-well microtiter plates containing artificial diet were treated with aqueous test solutions, prepared from 10′000 ppm DMSO stock solutions, by a liquid handling robot. After drying, eggs (˜30 per well) were infested onto a netted lid which was suspended above the diet. The eggs hatch and L1 larvae move down to the diet. The samples were assessed for mortality 9 days after infestation.
The following compounds gave an effect of at least 80% average mortality at an application rate of 500 ppm: • P2, P3, P5, P6, P7, P9, P15, P16, P17, P18, P20, P22, P24, P25, P30, P31, P32, P33, P38.

CC(NC(=O)c1cc(C(F)(F)F)cc(C(F)(F)F)c1)c1nc(OCC(F)(F)F)nn1-c1ncccn1 (stereo not drawn) [Compound P27, N-[1-[2-pyrimidin-2-yl-5-(2,2,2-trifluoroethoxy)-1,2,4-triazol-3-yl]ethyl]-3,5-bis(trifluoromethyl) benzamide]
≥ 80%: percent control (mortality, anti-feedant effect or growth inhibition) at 200 ppm [1] | percent control (mortality, anti-feedant effect or growth inhibition) at 200 ppm [2] | percent effect (mortality or growth inhibition) at 200 ppm [3] | percent effect (mortality or growth inhibition) at 200 ppm [4]

CC(c1nc(Br)nn1-c1ccccn1)N(C)C(=O)c1cc(C(F)(F)F)cc(C(F)(F)F)c1 (stereo not drawn) [Compound P24, N-[1-[5-bromo-2-(2-pyridyl)-1,2,4-triazol-3-yl]ethyl]-N-methyl-3,5-bis(trifluoromethyl) benzamide]
≥ 80%: percent control (mortality, anti-feedant effect or growth inhibition) at 200 ppm [2] | percent effect (mortality or growth inhibition) at 200 ppm [3] | mortality at 500 ppm [5] | percent effect (mortality or growth inhibition) at 200 ppm [4]

CC(c1nc(C#N)nn1-c1ncccn1)N(C)C(=O)c1cc(C(F)(F)F)cc(C(F)(F)F)c1 (stereo not drawn) [Compound P9, N-[1-(5-cyano-2-pyrimidin-2-yl-1,2,4-triazol-3-yl)ethyl]-N-methyl-3,5-bis(trifluoromethyl) benzamide]
≥ 80%: mortality at 500 ppm [5] | percent effect (mortality or growth inhibition) at 200 ppm [4]

CC(c1nc(SC(F)(F)F)nn1-c1ncccn1)N(C)C(=O)c1cc(C(F)(F)F)cc(C(F)(F)F)c1 (stereo not drawn) [Compound P20, N-methyl-N-[1-[2-pyrimidin-2-yl-5-(trifluoromethylsulfanyl)-1,2,4-triazol-3-yl]ethyl]-3,5-bis(trifluoromethyl)benzamide]
≥ 80%: percent control (mortality, anti-feedant effect or growth inhibition) at 200 ppm [2] | percent effect (mortality or growth inhibition) at 200 ppm [3] | mortality at 500 ppm [5]

CC(c1nc(S(=O)(=O)C(F)(F)F)nn1-c1ncccn1)N(C)C(=O)c1cc(C(F)(F)F)cc(C(F)(F)F)c1 (stereo not drawn) [Compound P19, N-methyl-N-[1-[2-pyrimidin-2-yl-5-(trifluoromethylsulfonyl)-1,2,4-triazol-3-yl]ethyl]-3,5-bis(trifluoromethyl)benzamide]
≥ 80%: percent control (mortality, anti-feedant effect or growth inhibition) at 200 ppm [1] | percent effect (mortality or growth inhibition) at 200 ppm [3]

C[C@H](NC(=O)c1cc(C(F)(F)F)cc(C(F)(F)F)c1)c1nc(OC(F)(F)F)nn1-c1ncccn1 [Compound P23, N-[(1S)-1-[2-pyrimidin-2-yl-5-(trifluoromethoxy)-1,2,4-triazol-3-yl]ethyl]-3,5-bis(trifluoromethyl)benzamide]
≥ 80%: percent control (mortality, anti-feedant effect or growth inhibition) at 200 ppm [2] | percent effect (mortality or growth inhibition) at 200 ppm [3] | percent effect (mortality or growth inhibition) at 200 ppm [4]

CC(=O)c1nc(C(C)NC(=O)c2cc(C(F)(F)F)cc(C(F)(F)F)c2)n(-c2ncccn2)n1 (stereo not drawn) [Compound P35, N-[1-(5-acetyl-2-pyrimidin-2-yl-1,2,4-triazol-3-yl)ethyl]-3,5-bis(trifluoromethyl) benzamide]
≥ 80%: percent control (mortality, anti-feedant effect or growth inhibition) at 200 ppm [1] | percent control (mortality, anti-feedant effect or growth inhibition) at 200 ppm [2] | percent effect (mortality or growth inhibition) at 200 ppm [3] | percent effect (mortality or growth inhibition) at 200 ppm [4]

CC#Cc1nc(C(C)N(C)C(=O)c2cc(C(F)(F)F)cc(C(F)(F)F)c2)n(-c2ncccn2)n1 (stereo not drawn) [Compound P8, N-methyl-N-[1(5-prop-1-ynyl-2-pyrimidin-2-yl-1,2,4-triazol-3-yl)ethyl]-3,5-bis(trifluoromethyl) benzamide]
≥ 80%: percent control (mortality, anti-feedant effect or growth inhibition) at 200 ppm [1] | percent effect (mortality or growth inhibition) at 200 ppm [3] | percent effect (mortality or growth inhibition) at 200 ppm [4]

CC(c1nc(-c2ccccc2)nn1-c1ncccn1)N(C)C(=O)c1cc(C(F)(F)F)cc(C(F)(F)F)c1 (stereo not drawn) [Compound P6, N-methyl-N-[1-(5-phenyl-2-pyrimidin-2-yl-1,2,4-triazol-3-yl)ethyl]-3,5-bis(trifluoromethyl)benzamide]
≥ 80%: percent effect (mortality or growth inhibition) at 200 ppm [3] | mortality at 500 ppm [5]
